Like-named read-outs stand apart in the source and are kept apart here.

The target of assay [1] is T1, biotinylated AVI-tagged EED (76-441) (Homo sapiens, UniProt O75530).
T1 construct: GST (N, cleaved yes); made in house; host or cells: E. coli BL21(DE3), co-expressed with pGro7
Description: EED binding SPR assay. The following applies: 1:1 binding model; read-out: KD, equilibrium dissociation constant as measured by surface plasmon resonance (SPR). The method, then:
Biotinylated AVI-tagged EED was produced using standard molecular biology techniques. A pGEX plasmid with a GST-preScission-cleavage-site-AVI-EED(76-441) sequence was placed into E. coli BL21(DE3) cells and co-expressed with pGro7. The E. coli were grown in shaker flasks in LB with ampicillin at 37° C. at 110 rpm to an OD600=0.7. At this time the temperature was lowered to 15° C. and IPTG was added to 0.3 mM. The cells were allowed to express overnight. Cells were then harvested.
For purification, the E. coli cell pellet was lysed into a buffer of 50 mM Tris pH 8.0, 500 mM NaCl, 5% glycerol and 5 mM DTT. The lysate was loaded onto a GSTrap FF column from GE Healthcare. After washing, the bound protein was eluted with 50 mM Tris pH 8.0, 500 mM NaCl, 5% glycerol, 5 mM DTT and 15 mM GSH. The collected fractions were combined and incubated with PreScission enzyme overnight at 4° C. The cleaved protein was then passed through a GSTrap FF column in a buffer of 50 mM Tris pH 8.0, 500 mM NaCl, 5% glycerol and 5 mM DTT. The cleaved protein was confirmed through mass spectrometry. The AVI-EED(76-441) was then buffer exchanged into 50 mM Bicine pH 8.3, 10 mM ATP, 10 mM magnesium acetate and 50 μM D-Biotin. 3 mg of BirA enzyme was added to the system and incubated at 4° C. for 2 hours to biotinylate the AVI-EED(76-441). The biotinylated-AVI-EED(76-441) was then buffer exchanged into 20 mM Tris pH 8.0 and 400 mM NaCl and passed through a size exclusion column of Superdex 200 16/60 Increase. The purified monomeric biotinylated-AVI-EED(76-441) was confirmed through SDS-PAGE, LC-MS and analytical size exclusion chromatography.
All surface plasmon resonance (SPR) assays were performed using a GE Biacore S200 utilizing GE Biotin CAPture chips. Capturing of CAP reagents was performed with a flow rate of 2 μL/min for 90 seconds. For protein capturing, a solution of 50 μg/mL of biotinylated AVI-tagged EED (76-441) in 10 mM HEPES pH 7.4, 150 mM NaCl, 0.05% Tween 20 and 2% DMSO (Running Buffer) was flowed over the chip with a flow rate of 5 μL/min for a contact time of 30 seconds. Final readings were 2200-2400 RU. For compounds, 7 concentrations were made with 3-dilutions using the Running Buffer for a total of 300 μL of each concentration in a 96-well microplate. During the binding experiments, a flow rate of […] was used for an association time of 90 seconds followed by a disassociation time of 180 seconds. The compartment temperature was set at 10° C. with the chip at 25° C. During regeneration the flow rate was set to 30 μL/min for 30 seconds. All fittings were done using a 1:1 binding model.

Assay [2] deals with human P-glycoprotein HEK cells (HEK-P-gp). Description: H3K27me3 immunocytochemistry assay in P-gp expressing HEK293T cells, with or without elacridar. It counts as cell-based. The following applies: Homo sapiens, 4 days compound treatment. The method, then: A plasmid encoding the human ABCB1 gene under the control of a CMV promoter was purchased from Origene (Cat #RC216080). The HEK293T cells were purchased from ATCC (Cat #CRL-3216) and were cultured for expansion in the recommended conditions. The HEK293T cells were transfected with 2 ug of the pCMV-ABCB1 plasmid using Lipofectamine 3000 following recommendations from the manufacturer (ThermoFisher Scientific, Cat #L3000008). After 24 h, cells were dissociated, and 5000 cells were seeded on a 10 cm tissue culture dish. On the next day, fresh media containing 5 nM Vinblastine (Sigma, Cat #V1377) was added, and media containing compound was replenished every 72 h. After surviving cells reached confluency, cells were passaged, and lines were maintained in the presence of 2.5 nM Vinblastine until further characterization.
P-gp expressing HEK293T, HUDEP2, and Human Mobilized Peripheral Blood Primary CD34+ cells were cultured for use in an H3K27me3 immunocytochemistry assay. HUDEP2 and Human Mobilized Peripheral Blood Primary CD34+ cells were cultured for use in an HbF immunocytochemistry assay. P-gp expressing HEK293T cells were maintained and passaged every 3-4 days by plating 300,000 viable cells in a T-25 culture flask containing 6 mLs of 293 Passaging Media comprised of DMEM (ThermoFisher #10566016), 10% fetal bovine serum (ThermoFisher #A3160502), 1% penicillin-streptomycin (ThermoFisher #15140122), and 2.5 nM Vinblastine (Sigma #V1377). To evaluate the inhibitory effect of the compounds of the present disclosure and their brain penetrant properties via P-gp mediated efflux, the H3K27me3 immunocytochemistry assay was conducted in the presence or absence of 250 nM of the P-gp inhibitor, elacridar. Poor brain penetrant compounds were expected to show higher potencies in the presence of Elacridar. However, brain penetrant compounds would show similar potencies irrespective of whether Elacridar is present or not. In these experiments plates without elacridar were seeded with P-gp expressing HEK293T cells at 1000 viable cells per well in a poly-d-lysine coated 384-well plate (Corning Cat #356697) in 45 μL of 293 Assay Media comprised of DMEM (ThermoFisher #10566016), 10% fetal bovine serum (ThermoFisher #A3160502), 1% penicillin-streptomycin (ThermoFisher #15140122). A replicate set of plates were seeded under the same conditions with 45 μL of 293 Assay Media supplemented with 250 nM of Elacridar to inhibit P-gp activity. Compounds were serially diluted at 10× concentration in 293 Media, and 5 μL transferred to their respective wells on both sets of plates for a total volume of 50 μL per well. The compound treated HEK293T cells were allowed to incubate for 4 days at 37° C., 85% relative humidity, and 5% CO2 before proceeding to ICC Fix and Stain protocol.
The Fix and Stain Protocol was the same for HEK293T, HUDEP2, and Primary CD34+ cell assays except the specific primary and secondary antibodies used for detection. Following 4 days of compound treatment, the respective plates were washed once with 25 μL of PBS (ThermoFisher #10010023) and fixed with 25 μL of 4% paraformaldehyde (ThermoFisher #28908) for 10 minutes at room temperature. The plates were then washed three times with 25 μL of PBS. Subsequent to that, the cells were permeabilized and blocked for 1 hour at room temperature in 25 μL of Perm/Block buffer comprised of IX PBS, 1% bovine serum albumin (ThermoFisher #A3294), 10% fetal bovine serum (ThermoFisher #A3160502), 0.3M glycine (Sigma #G7126), and 0.1% tween-20 (Sigma #P7949). This was followed by additional washing (three times) of the plates with 25 μL of 0.1% tween in PBS.
For the H3K27me3 assay, the cells were incubated overnight at 4° C. with 25 μL of H3K27me3 Primary Antibody (Cell Signaling #9733) diluted 1:200 in 0.1% tween-20 in PBS. […]

Setting [3] is: HEK293, 96 h, without elacridar, read-out: IC50, inhibitory activity on human P-glycoprotein HEK cells (HEK-P-gp).
The mark [4] stands for this setting: HEK293, with 250 nM elacridar, read-out: IC50, inhibitory activity on human P-glycoprotein HEK cells (HEK-P-gp) pretreated with elacridar.

T1 sequence (O75530 76-441 limits assumed): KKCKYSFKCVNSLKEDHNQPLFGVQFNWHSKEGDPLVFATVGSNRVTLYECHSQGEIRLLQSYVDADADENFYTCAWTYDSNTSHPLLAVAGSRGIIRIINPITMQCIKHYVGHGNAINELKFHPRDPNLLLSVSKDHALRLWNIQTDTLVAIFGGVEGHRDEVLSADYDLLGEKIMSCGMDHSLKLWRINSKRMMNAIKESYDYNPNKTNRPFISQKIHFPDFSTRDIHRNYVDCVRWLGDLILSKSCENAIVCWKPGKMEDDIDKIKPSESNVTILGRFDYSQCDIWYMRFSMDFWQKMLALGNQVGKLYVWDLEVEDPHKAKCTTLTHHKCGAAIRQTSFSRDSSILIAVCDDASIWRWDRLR

As for `Fc1ccc2c3c1CNc1c(cc(-c4cnc(C5CC5)nc4)c4nncn14)OC[C@@H]3CO2` [Compound 178, (S)-4-(2-cyclopropylpyrimidin-5-yl)-12-fluoro-7a,8,13,14-tetrahydro-7H-[1,2,4]triazolo[4′,3′:1,6]pyrido[3,2-b]benzofuro[4,3-fg][1,4]oxazonine], the Kd in assay [1] is below 2.5 nM. Also, the IC50 in assay [2] (setting [3]) fell in the range of 100 to 500 nM; in assay [2] (setting [4]) it was 50 to 100 nM.
The corresponding values for `Cc1ncc(-c2cc3c(n4cnnc24)NCc2c(F)ccc4c2[C@@H](CO4)CO3)cc1N` [Compound 179, (S)-5-(12-fluoro-7a,8,13,14-tetrahydro-7H-[1,2,4]triazolo[4′,3′:1,6]pyrido[3,2-b]benzofuro[4,3-fg][1,4]oxazonin-4-yl)-2-methylpyridin-3-amine] are below 2.5 nM, above 500 nM and 100 to 500 nM.
As for `Cc1nc(O)ccc1-c1cc2c(n3cnnc13)NCc1c(F)ccc3c1[C@@H](CO3)CO2` [Compound 187, (S)-5-(12-fluoro-7a,8,13,14-tetrahydro-7H-[1,2,4]triazolo[4′,3′:1,6]pyrido[3,2-b]benzofuro[4,3-fg][1,4]oxazonin-4-yl)-6-methylpyridin-2-ol], the Kd in assay [1] was below 2.5 nM. Further, the IC50 in assay [2] (setting [3]) and in assay [2] (setting [4]) was above 500 nM in each case.
Take `Fc1ccc2c3c1CNc1c(cc(-c4cnco4)c4nncn14)OC[C@@H]3CO2` [Compound 188, (S)-12-fluoro-4-(oxazol-5-yl)-7a,8,13,14-tetrahydro-7H-[1,2,4]triazolo[4′,3′:1,6]pyrido[3,2-b]benzofuro[4,3-fg][1,4]oxazonine]: in assay [1], the Kd was below 2.5 nM. The IC50 in assay [2] (setting [3]) and in assay [2] (setting [4]) was 100 to 500 nM each time.
As for `Cc1nc(C2CC2)ncc1-c1cc2c(n3cnnc13)NCc1c(F)ccc3c1[C@@H](CO3)CO2` [Compound 190, (S)-4-(2-cyclopropyl-4-methylpyrimidin-5-yl)-12-fluoro-7a,8,13,14-tetrahydro-7H-[1,2,4]triazolo[4′,3′:1,6]pyrido[3,2-b]benzofuro[4,3-fg][1,4]oxazonine], the Kd in assay [1] was below 2.5 nM. Also, the half-inhibitory concentration (IC50) in assay [2] (setting [3]) and in assay [2] (setting [4]) was below 25 nM throughout.
In the case of `CNC(=O)CCc1ccc(-c2cc3c(n4cnnc24)NCc2c(F)ccc4c2C(CO4)CO3)c(C)n1` [Compound 191, (S)-3-(5-(12-fluoro-7a,8,13,14-tetrahydro-7H-[1,2,4]triazolo[4′,3′:1,6]pyrido[3,2-b]benzofuro[4,3-fg][1,4]oxazonin-4-yl)-6-methylpyridin-2-yl)-N-methylpropanamide], the Kd in assay [1] was below 2.5 nM. For the same compound, the IC50 in assay [2] (setting [3]) was in the range of 50 to 100 nM; in assay [2] (setting [4]) it was 100 to 500 nM.
With `Cc1nccc(O)c1-c1cc2c(n3cnnc13)NCc1c(F)ccc3c1C(CO3)CO2` [Compound 192, (S)-3-(12-fluoro-7a,8,13,14-tetrahydro-7H-[1,2,4]triazolo[4′,3′:1,6]pyrido[3,2-b]benzofuro[4,3-fg][1,4]oxazonin-4-yl)-2-methylpyridin-4-ol], the Kd in assay [1] lay in the range of 10 to 50 nM. Also, the IC50 in assay [2] (setting [3]) and in assay [2] (setting [4]) was above 500 nM throughout.
Take `CC(=O)N1CC=C(c2cc3c(n4cnnc24)NCc2c(F)ccc4c2[C@@H](CO4)CO3)CC1` [Compound 193, (S)-1-(4-(12-fluoro-7a,8,13,14-tetrahydro-7H-[1,2,4]triazolo[4′,3′:1,6]pyrido[3,2-b]benzofuro[4,3-fg][1,4]oxazonin-4-yl)-3,6-dihydropyridin-1(2H)-yl)ethan-1-one]: the Kd in assay [1] is below 2.5 nM. In addition, the IC50 in assay [2] (setting [3]) was in the range of 25 to 50 nM; in assay [2] (setting [4]) it was 50 to 100 nM.
The like results for `Cc1ncc(O)cc1-c1cc2c(n3cnnc13)NCc1c(F)ccc3c1[C@@H](CO3)CO2` [Compound 194, (S)-5-(12-fluoro-7a,8,13,14-tetrahydro-7H-[1,2,4]triazolo[4′,3′:1,6]pyrido[3,2-b]benzofuro[4,3-fg][1,4]oxazonin-4-yl)-6-methylpyridin-3-ol] were, in that order, below 2.5 nM, 50 to 100 nM and 50 to 100 nM.
The like results for `OCc1ncccc1-c1cc2c(n3cnnc13)NCc1c(F)ccc3c1C(CO3)CO2` [Compound 195, (S)-(3-(12-fluoro-7a,8,13,14-tetrahydro-7H-[1,2,4]triazolo[4′,3′:1,6]pyrido[3,2-b]benzofuro[4,3-fg][1,4]oxazonin-4-yl)pyridin-2-yl)methanol] were, in that order, below 2.5 nM, below 25 nM and 50 to 100 nM.
The like results for `Cn1ncc(O)c1-c1cc2c(n3cnnc13)NCc1c(F)ccc3c1C(CO3)CO2` [Compound 196, (S)-5-(12-fluoro-7a,8,13,14-tetrahydro-7H-[1,2,4]triazolo[4′,3′:1,6]pyrido[3,2-b]benzofuro[4,3-fg][1,4]oxazonin-4-yl)-1-methyl-1H-pyrazol-4-ol] were, in that order, below 2.5 nM, 25 to 50 nM and 50 to 100 nM.

Values taken from patent US20220160686A1, “MACROCYCLIC AZOLOPYRIDINE DERIVATIVES AS EED AND PRC2 MODULATORS” (Fulcrum Therapeutics, Inc., priority 2019, published 2022).
